Where a SMILES comes first, the peptide text is derived from it. [ ]: non-standard residue; d: D form. dPhe(F5) = N[C@H](Cc1c(F)c(F)c(F)c(F)c1F)C(=O)O

For test [1], the system named is sperm. The experiment in a line: acrosome reaction, analogs alone or in the presence of GRP (sperm species not stated). The format is cell-based. The settings on record: for % Acrosome Reacted, Analog + GRP: analog 50 nM + GRP 2 nM; for % Acrosome Reacted, Analog: analog alone, final concentration 50 nM, blank control 6.000 ± .707. The protocol:
(§1) The acrosome reaction, which is necessary for sperm to fertilize the egg, was induced by the following methods.
(§2) For monkeys, sperm was collected, washed twice in balanced salts, resuspended in lactate/bicarbonate and dibutyryl cAMP, and then incubated for 60 minutes. […] See Wolf, D. P. et al. Mol. Reprod. Dev. 27:261-280 (1990); Lanzendorf, S. E. et al. Mol. Reprod. Dev. 25:61-66 (1990); and Wolf D. P. et al. Biol. Reprod. 41:335-346 (1989). All of these three publications are hereby incorporated by reference.
(§3) To measure the effects of bombesin on the acrosome reaction, capacitation was conducted in the presence or absence of bombesin. After incubation, samples of sperm were removed to determine the percentage of sperm which had undergone the acrosome reaction as measured with an acrosome specific monoclonal antibody and FITC fluorescence [see Wolf, D. P. Am. J. Reprod. Immunol. 20:106-113 (1989), which is hereby incorporated by reference].
[…] bombesin analogs, BIM 26136, BIM 26187, BIM 26189, BIM 26224, BIM 26226, BIM 26244, and BIM 26028, were used to test their effect on the acrosome reaction, either alone or in the presence GRP, in a manner described above.

In the next test the test system is monkey sperm. The experiment in a line: acrosome reaction in monkey sperm (acrosome specific monoclonal antibody, FITC fluorescence). The format is cell-based, monkeys (rhesus). The settings on record: for stimulation of the spontaneous acrosome reaction: monkeys (rhesus). The protocol: as §1, §2, §3
A further test concerns human sperm. The experiment in a line: acrosome reaction in human sperm. The format is cell-based. Conditions: for stimulation of the spontaneous acrosome reaction: humans. The protocol: as §1, §3
Test [2] deals with sperm. The settings on record: high doses, 1 μg/ml; cited from earlier work.
Another test deals with new GRP receptor. In words: response of new GRP receptor in transfected cells and Xenopus oocytes. The format is cell-based, rat. An excerpt: A new GRP receptor, which is expressed in very high levels in rat sperm, has recently been cloned. cDNA encoding this receptor was used to determine if this new GRP receptor is expressed in primate sperm.

As to `CC(C)C[C@H](NC(=O)[C@H](CC(C)C)NC(=O)[C@H](Cc1c[nH]cn1)NC(=O)CNC(=O)[C@@H](NC(=O)[C@H](C)NC(=O)[C@H](Cc1c[nH]c2ccccc12)NC(=O)[C@H](CCC(N)=O)NC(=O)[C@H](N)Cc1ccccc1)C(C)C)C(N)=O` [BIM 26137, H-D-Phe-Gln-Trp-Ala-Val-Gly-His-Leu-Leu-NH2], in the test on sperm [1], the “% Acrosome Reacted, Analog + GRP” value is 7.000 ± .707% and the “% Acrosome Reacted, Analog” value was 7.000 ± .707%.

Regarding `CCCC[C@H](NC(=O)[C@H](Cc1ccccc1)NC(=O)[C@H](Cc1c[nH]cn1)NC(=O)CNC(=O)[C@@H](NC(=O)[C@H](C)NC(=O)[C@H](Cc1c[nH]c2ccccc12)NC(=O)[C@H](CCC(N)=O)NC(=O)[C@H](N)Cc1ccccc1)C(C)C)C(N)=O` [BIM 26224, H-D-Phe-Gln-Trp-Ala-Val-Gly-His-Phe-Nle-NH2], in the test with sperm [1], the “% Acrosome Reacted, Analog + GRP” value is reported as 6.000 ± 1.000% and the “% Acrosome Reacted, Analog” value is 9.000 ± 1.581%.

In the case of `COC(=O)[C@H](CC(C)C)NC(=O)[C@H](Cc1c[nH]cn1)NC(=O)[C@@H](C)NC(=O)[C@@H](NC(=O)[C@H](C)NC(=O)[C@H](Cc1c[nH]c2ccccc12)NC(=O)[C@H](CCC(N)=O)NC(=O)[C@H](N)Cc1c(F)c(F)c(F)c(F)c1F)C(C)C` [BIM 26226, H-D-F5 -Phe-Gln-Trp-Ala-Val-D-Ala-His-Leu-OCH3] (H-[dPhe(F5)]QWAV[dA]HL-OMe), in the test with sperm [1], the “% Acrosome Reacted, Analog + GRP” value is 12.000 ± .707% and the “% Acrosome Reacted, Analog” value was 9.000 ± 1.780%.

`CSCC[C@H](NC(=O)[C@H](CC(C)C)NC(=O)[C@H](Cc1cnc[nH]1)NC(=O)CNC(=O)[C@@H](NC(=O)[C@H](C)NC(=O)[C@H](Cc1c[nH]c2ccccc12)NC(=O)[C@H](CCC(N)=O)NC(=O)[C@H](CC(N)=O)NC(=O)CNC(=O)[C@H](CC(C)C)NC(=O)[C@H](CCCN=C(N)N)NC(=O)[C@H](CCC(N)=O)NC(=O)[C@@H]1CCC(=O)N1)C(C)C)C(N)=O` [bombesin, H-pGlu-Gln-Arg-Leu-Gly-Asn-Gln-Trp-Ala-Val-Gly-His-Leu-Met-NH2]: the “increase in the acrosome reaction” value in the test with monkey sperm (monkey sperm, concentrations as low as 5 nM bombesin, FIG. 2) is recorded as 2 fold; with human sperm (human sperm, concentrations as low as 5 nM bombesin, FIG. 2), 2 fold. Further, the “stimulation of the spontaneous acrosome reaction” value in the test with monkey sperm and with human sperm was “stimulate” in each case.

In the case of `CC(=O)[C@H]1CC[C@H]2[C@@H]3CCC4=CC(=O)CC[C@]4(C)[C@H]3CC[C@]12C` [progesterone], the “induction of the acrosome reaction” value in the test with sperm [2] is “induce the acrosome reaction”.

Turning to “H-Ala-Pro-Val-Ser-Val-Gly-Gly-Gly-Thr-Val-Leu-Ala-Lys-Met-Tyr-Pro-Arg-Gly-Asn-His-Trp-Ala-Val-Gly-His-Leu-Met-NH2 (H-APVSVGGGTVLAKMYPRGNHWAVGHLM-NH2) [GRP]”, the “stimulation of the spontaneous acrosome reaction” value with monkey sperm and in the test with human sperm was “stimulate” in each case. The “concentration at which active in stimulating the acrosome reaction” value with sperm [1] was 1 nM. For the same compound, the “% Acrosome Reacted, GRP without analog (blank control line, GRP column)” value in the test with sperm [1] (GRP final concentration 2 nM, no analog) is on record as 18.000 ± 3.629%. Further, the “reaction of the new receptor to the peptide” value in the test on new GRP receptor was “reacted only weakly”.

“H-D-Nal-Gln-Trp-Ala-Val-Gly-His-Leu-.psi.(CH2 -NH)-Phe-NH2 [BIM 26136]”: the “rank in inducing the acrosome reaction among the analogs tested” value in the test with sperm [1] (Table 1, 50 nM) is given as “most potent”. In the test with sperm [1], the “% Acrosome Reacted, Analog + GRP” value was determined as 10.000 ± 1.225% and the “% Acrosome Reacted, Analog” value is recorded as 11.000 ± .408%.

“H-D-Phe-Gln-Trp-Ala-Val-Gly-His-Leu-Cpa-NH2 [BIM 26169]”: in the test on sperm [1], the “% Acrosome Reacted, Analog + GRP” value is 6.000 ± .408% and the “% Acrosome Reacted, Analog” value is recorded as 10.000 ± .913%.

For Neuromedin B, the “reaction of the new receptor to the peptide” value in the test with new GRP receptor is “reacted only weakly”.

Values taken from patent US5439884A, “Method of controlling fertilization using bombesin or its agonist” (Oregon Regional Primate Research Center, priority 1992, dated 1995).
